Measurements: patent US10568950B1, “Peptides, combination of peptides and scaffolds for use in immunotherapeutic treatment of various cancers” (Immatics Biotechnologies GmbH, priority 2015, dated 2020)

How the values were obtained:
[1] = tested on: HLA-A*24; experiment: MHC binding assay: UV-ligand exchange, beta2m ELISA (peptide exchange yield); set-up: species or system human; conditions: binding to HLA-A*24, β2m ELISA
Source text: Candidate peptides for T cell based therapies according to the present invention were further tested for their MHC binding capacity (affinity). The individual peptide-MHC complexes were produced by UV-ligand exchange, where a UV-sensitive peptide is cleaved upon UV-irradiation, and exchanged with the peptide of interest as analyzed. Only peptide candidates that can effectively bind and stabilize the peptide-receptive MHC molecules prevent dissociation of the MHC complexes. To determine the yield of the exchange reaction, an ELISA was performed based on the detection of the light chain (β2m) of stabilized MHC complexes. The assay was performed as generally described in Rodenko et al. (Rodenko et al., 2006).
96 well MAXISorp plates (NUNC) were coated over night with 2 ug/ml streptavidin in PBS at room temperature, washed 4× and blocked for 1 h at 37° C. in 2% BSA containing blocking buffer. […] Peptide-MHC monomers of the UV-exchange reaction were diluted 100 fold in blocking buffer. Samples were incubated for 1 h at 37° C., washed four times, incubated with 2 ug/ml HRP conjugated anti-βm for 1 h at 37° C., washed again and detected with TMB solution that is stopped with […]. Absorption was measured at 450 nm. Candidate peptides that show a high exchange yield (preferably higher than 50%, most preferred higher than 75%) are generally preferred for a generation and production of antibodies or fragments thereof, and/or T cell receptors or fragments thereof, as they show sufficient avidity to the MHC molecules and prevent dissociation of the MHC complexes.

[2] = tested on: CD8+ T cells of healthy HLA-A*24+ donors; experiment: In vitro immunogenicity: priming of CD8+ T cells with aAPCs loaded with HLA-A*24/peptide complexes and anti-CD28, multimer staining; format: cell-based, human; conditions: in vitro immunogenicity, HLA-A*24 peptides of Table 12B
Experimental: CD8+ T cells were primed using artificial APCs coated with anti-CD28 mAb and HLA-A*24 in complex with SEQ ID NO: 99 peptide (FIG. 5A, left panel), SEQ ID NO: 119 peptide (FIG. 5B, left panel), SEQ ID NO: 142 peptide (FIG. 5C, left panel) and SEQ ID NO: 174 peptide (FIG. 5D, left panel), respectively. After three cycles of stimulation, the detection of peptide-reactive cells was performed by 2D multimer staining with A*24/SEQ ID NO: 99 (A), A*24/SEQ ID NO: 119 (B), A*24/SEQ ID NO: 142 (C) or A*24/SEQ ID NO: 174 (D). Right panels (FIGS. 5A, 5B, 5C and 5D) show control staining of cells stimulated with irrelevant A*24/peptide complexes. Viable singlet cells were gated for CD8+ lymphocytes. Boolean gates helped excluding false-positive events detected with multimers specific for different peptides. Frequencies of specific multimer+ cells among CD8+ lymphocytes are indicated.
In order to obtain information regarding the immunogenicity of the TUMAPs of the present invention, the inventors performed investigations using an in vitro T-cell priming assay based on repeated stimulations of CD8+ T cells with artificial antigen presenting cells (aAPCs) loaded with peptide/MHC complexes and anti-CD28 antibody.
PBMCs and isolated CD8+ lymphocytes were incubated in T-cell medium (TCM) until use consisting of RPMI-Glutamax (Invitrogen, Karlsruhe, Germany) supplemented with 10% heat inactivated human AB serum (PAN-Biotech, Aidenbach, Germany), 100 U/ml Penicillin/100 μg/ml Streptomycin (Cambrex, Cologne, Germany), 1 mM sodium pyruvate (CC Pro, Oberdorla, Germany), 20 μg/ml Gentamycin (Cambrex). 2.5 ng/ml IL-7 (PromoCell, Heidelberg, Germany) and 10 U/ml IL-2 (Novartis Pharma, Nurnberg, Germany) were also added to the TCM at this step.
Generation of pMHC/anti-CD28 coated beads, T-cell stimulations and readout was performed in a highly defined in vitro system using four different pMHC molecules per stimulation condition and 8 different pMHC molecules per readout condition.
The purified co-stimulatory mouse IgG2a anti human CD28 Ab 9.3 (Jung et al., 1987) was chemically biotinylated using Sulfo-N-hydroxysuccinimidobiotin as recommended by the manufacturer (Perbio, Bonn, Germany). Beads used were 5.6 μm diameter streptavidin coated polystyrene particles (Bangs Laboratories, Illinois, USA).
800.000 beads/200 μl were coated in 96-well plates in the presence of 4×12.5 ng different biotin-pMHC, washed and 600 ng biotin anti-CD28 were added subsequently in a volume of 200 μl. Stimulations were initiated in 96-well plates by co-incubating […] CD8+ T cells with 2×10^5 washed coated beads in 200 μl TCM supplemented with 5 ng/ml IL-12 (PromoCell) for 3 days at 37° C. Half of the medium was then exchanged by fresh TCM supplemented with 80 U/ml IL-2 and incubating was continued for 4 days at 37° C. This stimulation cycle was performed for a total of three times. For the pMHC multimer readout using 8 different pMHC molecules per condition, a two-dimensional combinatorial coding approach was used as previously described (Andersen et al., 2012) with minor modifications encompassing coupling to 5 different fluorochromes. Finally, multimeric analyses were performed by staining the cells with Live/dead near IR dye (Invitrogen, Karlsruhe, Germany), CD8-FITC antibody clone SKI (BD, Heidelberg, Germany) and fluorescent pMHC multimers. For analysis, a BD LSRII SORP cytometer equipped with appropriate lasers and filters was used. Peptide specific cells were calculated as percentage of total CD8+ cells. Evaluation of multimeric analysis was done using the FlowJo software (Tree Star, Oreg., USA). In vitro priming of specific multimer+ CD8+ lymphocytes was detected by comparing to negative control stimulations.

Row | Substance | Peptide exchange (MHC class I binding score, peptide exchange yield) [1] | Wells positive [%] [2]
1 | 137 (EYLHNCSYF; listed as Homo sapiens) [compound 137] | ++++ (>= 75% = ++++) | + (<20% = +)
2 | 99 (QYILAVPVL; listed as Homo sapiens) [compound 99] | ++++ (>= 75% = ++++) | +++ (50%-69% = +++)
3 | 120 (GYIEHFSLW; listed as Homo sapiens) [compound 120] | ++++ (>= 75% = ++++) | ++ (20%-49% = ++)
4 | 172 (VFIFKGNEF; listed as Homo sapiens) [compound 172] | ++++ (>= 75% = ++++) | + (<20% = +)
5 | 356 (NYMPGQLTI; listed as Homo sapiens) [compound 356] | ++++ (>= 75% = ++++) | + (<20% = +)
6 | 109 (LFITGGQFF; listed as Homo sapiens) [compound 109] | ++++ (>= 75% = ++++) | ++ (20%-49% = ++)
7 | 156 (YYMELTKLLL; listed as Homo sapiens) [compound 156] | ++++ (>= 75% = ++++) | + (<20% = +)
8 | 365 (VFIDHPVHL; listed as Homo sapiens) [compound 365] | ++++ (>= 75% = ++++) | + (<20% = +)
9 | 163 (RYLTISNLQF; listed as Homo sapiens) [compound 163] | ++++ (>= 75% = ++++) | + (<20% = +)
10 | 186 (VFTTSSNIF; listed as Homo sapiens) [compound 186] | ++++ (>= 75% = ++++) | + (<20% = +)
11 | 182 (AYAQLGYLLF; listed as Homo sapiens) [compound 182] | ++++ (>= 75% = ++++) | +++ (50%-69% = +++)
12 | 359 (NYGVLHVTF; listed as Homo sapiens) [compound 359] | ++++ (>= 75% = ++++) | + (<20% = +)
13 | 96 (YYTQYSQTI; listed as Homo sapiens) [compound 96] | ++++ (>= 75% = ++++) | + (<20% = +)
14 | 132 (RYPALFPVL; listed as Homo sapiens) [compound 132] | ++++ (>= 75% = ++++) | + (<20% = +)
15 | 104 (SYLTWHQQI; listed as Homo sapiens) [compound 104] | ++++ (>= 75% = ++++) | + (<20% = +)
16 | 140 (RYLINSYDF; listed as Homo sapiens) [compound 140] | ++++ (>= 75% = ++++) | +++ (50%-69% = +++)
17 | 114 (QYLDGTWSL; listed as Homo sapiens) [compound 114] | ++++ (>= 75% = ++++) | +++ (50%-69% = +++)
18 | 166 (FYTLPFHLI; listed as Homo sapiens) [compound 166] | ++++ (>= 75% = ++++) | ++++ (>= 70 % = ++++)
19 | 170 (QYPFHVPLL; listed as Homo sapiens) [compound 170] | ++++ (>= 75% = ++++) | +++ (50%-69% = +++)
20 | 144 (VFASLPGFLF; listed as Homo sapiens) [compound 144] | ++++ (>= 75% = ++++) | ++ (20%-49% = ++)
21 | 380 (VYTGIDHHW; listed as Homo sapiens) [compound 380] | ++++ (>= 75% = ++++) | + (<20% = +)
22 | 155 (IYKWITDNF; listed as Homo sapiens) [compound 155] | ++++ (>= 75% = ++++) | ++ (20%-49% = ++)
